Measured values reported in patent publication US5227488A, “Aza spiro decane and use thereof in treating CNS disorders” (Novo Nordisk A/S, priority 1989, dated 1993).
Counter-ions that a name gives are not always drawn.

Legend:
5-HT1 recognition sites = conditions: background; Ann. Reports Med. Chem. 21 (1986), 42-43; cited from earlier work
5-HT1B = molecular target: T1, 5-HT1B (Rattus norvegicus, UniProt P28564); assay: Receptor binding in vitro, 5-HT1B (3H-5-HT displacement, with 50 nM 8-OH-DPAT)
T1 construct: from tissue; host or cells: rat brain: frontal cortex, hippocampus
Method: (§1) Compounds of the general formula (I) were tested for binding to 5-HT receptors and compared with known ligands by the following procedure:
(§2) Rat brain tissue (as specified in the table hereinafter) was homogenized using a Polytron homogenizer. The final pellet was resuspended in 125 vol (tissue wet weight) of buffer.
(§3) In all assays incubation was carried out for 10 min at 37° C.
Labelling of the 5-HT1B receptor was complicated by the fact that the available ligand ^3 H-5-HT is nonselective.
(§4) Detailed conditions for the receptor binding assay in vitro are tabulated below.

Adenylatcyclase = assay: Adenylatcyclase; format: biochemical
5-HT1A = molecular target: T2, 5-HT1A (Rattus norvegicus, UniProt P19327); assay: Receptor binding in vitro, 5-HT1A (3H-8OH-DPAT displacement); conditions: ligand 3H-8OH-DPAT 2 nM; rat frontal cortex, hippocampus
T2 construct: from tissue; host or cells: rat brain: frontal cortex, hippocampus
T2 sequence (P19327 1-422): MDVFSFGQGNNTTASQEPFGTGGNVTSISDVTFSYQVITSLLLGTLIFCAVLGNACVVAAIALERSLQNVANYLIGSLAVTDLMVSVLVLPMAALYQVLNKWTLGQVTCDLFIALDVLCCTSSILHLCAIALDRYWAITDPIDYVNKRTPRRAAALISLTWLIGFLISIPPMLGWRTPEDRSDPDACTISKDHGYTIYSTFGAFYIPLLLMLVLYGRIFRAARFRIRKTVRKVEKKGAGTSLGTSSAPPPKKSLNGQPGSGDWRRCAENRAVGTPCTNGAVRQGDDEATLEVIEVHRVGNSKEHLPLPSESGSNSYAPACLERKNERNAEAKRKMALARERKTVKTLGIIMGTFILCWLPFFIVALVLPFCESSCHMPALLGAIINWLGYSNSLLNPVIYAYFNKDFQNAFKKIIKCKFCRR
Method: as §1, §2, §3, §4

5-HT2 = molecular target: T3, 5-HT2 (Rattus norvegicus, UniProt P14842); assay: Receptor binding in vitro, 5-HT2 (3H-ketanserin displacement)
T3 construct: from tissue; host or cells: rat brain: frontal cortex, striatum
Method: as §1, §2, §3, §4

5-HT2 receptor subtype = conditions: background; cited from earlier work
5-HT1A receptors = conditions: background; cited from earlier work

T3 sequence (P14842 whole entry): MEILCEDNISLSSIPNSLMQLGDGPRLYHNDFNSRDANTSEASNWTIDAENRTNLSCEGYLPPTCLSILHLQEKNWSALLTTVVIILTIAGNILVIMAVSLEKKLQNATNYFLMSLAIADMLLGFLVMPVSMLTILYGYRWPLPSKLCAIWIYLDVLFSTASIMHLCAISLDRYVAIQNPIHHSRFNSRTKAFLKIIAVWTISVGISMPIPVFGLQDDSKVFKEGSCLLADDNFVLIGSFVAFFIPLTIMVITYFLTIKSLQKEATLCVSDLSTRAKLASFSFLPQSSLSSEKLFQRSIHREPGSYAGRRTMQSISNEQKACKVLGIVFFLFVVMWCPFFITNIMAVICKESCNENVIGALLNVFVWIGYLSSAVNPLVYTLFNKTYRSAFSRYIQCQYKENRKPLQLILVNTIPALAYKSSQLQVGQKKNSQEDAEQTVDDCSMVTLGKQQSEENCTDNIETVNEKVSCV
T1 sequence (P28564 whole entry): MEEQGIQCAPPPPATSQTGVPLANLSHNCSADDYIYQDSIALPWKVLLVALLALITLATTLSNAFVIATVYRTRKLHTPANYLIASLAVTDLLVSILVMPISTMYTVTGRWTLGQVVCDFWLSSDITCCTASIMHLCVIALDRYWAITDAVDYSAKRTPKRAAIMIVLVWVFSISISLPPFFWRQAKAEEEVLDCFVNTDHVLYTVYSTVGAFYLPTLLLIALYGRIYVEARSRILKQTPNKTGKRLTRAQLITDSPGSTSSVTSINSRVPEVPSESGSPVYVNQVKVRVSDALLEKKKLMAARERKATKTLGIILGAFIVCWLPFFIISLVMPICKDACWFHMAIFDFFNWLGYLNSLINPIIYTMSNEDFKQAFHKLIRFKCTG

| SMILES | affinity for 5-HT1 recognition sites (in words) (5-HT1 recognition sites) | discrimination between the 5-HT1A and 5-HT1B receptor subtypes (in words) (5-HT1 recognition sites) | IC50 (5-HT1B) | IC50 (Adenylatcyclase) | IC50 (5-HT1A) | IC50 (5-HT2) | affinity for the 5-HT2 receptor subtype (in words) (5-HT2 receptor subtype) | affinity for 5-HT1A receptors (in words) (5-HT1A receptors) |
| --- | --- | --- | --- | --- | --- | --- | --- | --- |
| COc1ccc2[nH]cc(C3=CCNCC3)c2c1 [RU 24969] | high affinity | only limited capacity to discriminate | – | – | – | – | – | – |
| COc1ccc2[nH]cc(SCCNCCCCN3C(=O)CC4(CCCC4)CC3=O)c2c1 [Example 8, 1-(4-(7,9-Dioxo-8-azaspiro[4,5]decan-8-yl)butyl-1-amino)-2-(5-methoxy-3-indolylthio)-ethane, oxalate] | – | – | > 1000 nM | 30 nM | 33 nM | > 1000 nM | – | – |
| O=C1CC2(CCCC2)CC(=O)N1CCCCNCCSc1c[nH]c2ccccc12 [Example 3, 1-(4-(7,9-Dioxo-8-azaspiro[4,5]decan-8-yl)butyl-1-amino)2-(3-indolylthio)-ethane, oxalate] | – | – | 233 nM | 10 nM | 40 nM | 613 nM | – | – |
| O=C(c1ccc(F)cc1)C1CCN(CCn2c(=O)[nH]c3ccccc3c2=O)CC1 [ketanserin] | – | – | – | – | – | – | high affinity | – |
| O=C1c2ccccc2S(=O)(=O)N1CCCCNCCSc1c[nH]c2ccccc12 [Example 6, 1-(4-(o-Sulfobenzimido)butyl-1-amino)-2-(3-indolylthio)ethane, oxalate] | – | – | > 1000 nM | 20 nM | 34 nM | > 1000 nM | – | – |
| O=C1CC2(CCCC2)CC(=O)N1CCCCN1CCN(c2ncccn2)CC1 [buspirone, reference compound] | – | – | – | 125 nM | – | – | – | – |
| COc1ccc2[nH]cc(OCCNCCCCN3C(=O)C4C5C=CC(C6C=CC65)C4C3=O)c2c1 (stereo not drawn) [Example 24, 1-(4-(1,3-Dioxo-4,7-etheno-1,3,3a,4,4a,6a,7,7a-octahydro-2H-cyclobut[f]isoindol-2-yl)butyl-1-amino)-2-(5-methoxy-3-indolyloxy)-ethane, oxalate] | – | – | > 1000 nM | 4 nM | 6.9 nM | > 1000 nM | – | – |
| COc1ccc2[nH]cc(SCCNCCCCN3C(=O)C4C5C=CC(C6CC56)C4C3=O)c2c1 (stereo not drawn) [Example 10] | – | – | > 1000 nM | 23 nM | 8 nM | > 1000 nM | – | – |
| COc1ccc2[nH]cc(SCCNCCCCN3C(=O)c4ccccc4C3=O)c2c1 [Example 9, 1-(4-Phthalimidobutyl-1-amino)-2-(5-methoxy-3-indolylthio)-ethane, oxalate] | – | – | 156 nM | 140 nM | 20 nM | > 1000 nM | – | – |
| O=C1c2ccccc2S(=O)(=O)N1CCCCN1CCN(c2ncccn2)CC1 [ipsapirone, reference compound] | – | – | > 1000 nM | 850 nM | 25 nM | > 1000 nM | – | – |
| COc1ccc2[nH]cc(SCCNCCCCN3C(=O)C4CC=CCC4C3=O)c2c1 (stereo not drawn) [Example 12, 1-(4-(Cis-4-cyclohexen-1,2-dicarboximido)butyl-1-amino)-2-(5-methoxy-3-indolylthio)-ethane, oxalate] | – | – | > 1000 nM | 240 nM | 17 nM | > 1000 nM | – | – |
| CCCN(CCC)C1CCc2cccc(O)c2C1 (stereo not drawn) [Example 8-OH-DPAT, 8-hydroxy-2-(di-n-propylamino)tetralin, reference compound] | – | – | – | 80 nM | – | > 1000 nM | – | binds with high affinity |
| COc1ccc2[nH]cc(OCCNCCCCN3C(=O)CC4(CCCC4)CC3=O)c2c1 [Example 23, 1-(4-(7,9-Dioxo-8-azaspiro[4,5]decan-8-yl)butyl-1-amino)-2-(5-methoxy-3-indolyloxy)-ethane, oxalate] | – | – | > 1000 nM | 1.8 nM | 0.6 nM | > 1000 nM | – | – |
| CC1(C)CC(=O)N(CCCCN2CCN(c3ncccn3)CC2)C(=O)C1 [gepirone, reference compound] | – | – | – | 1000 nM | – | > 1000 nM | – | – |
